# From patent publication US8729131B2, “Agomelatine hydrochloride hydrate and preparation thereof” (Les Laboratoires Servier, priority 2010, dated 2014)
# Counter-ions that a name gives are not always drawn.
# Columns and labels:
# Format in all cases: physicochemical
# [1] = Stability test: product placed in an incubator at 40° C. for 30 days, determined with HPLC; conditions: 40° C. incubator
# Method: Chromatographic conditions: C18 column; mobile phase: 10 mmol/L phosphate buffer (adjusted to pH 7.0 with NaOH): acetonitrile=2:7 (v/v); column temperature: 40° C.; detection wavelength: 220 nm; internal standard method was used on the products of Examples 1 and 2.
# Solutions of the products at 1 mg/mL were prepared with the mobile phase. 10 μL of each solution was injected into the liquid chromatograph system and chromatograms were recorded. The results of the purity are shown in Examples 1 and 2.
# Some of the product of Example 1 was placed in an incubator at 40° C. for 30 days to determine its stability with HPLC.
# [2] = Water solubility, HPLC external standard method
# Method: Using external standard method, the product of Example 1 was tested with HPLC, compared with agomelatine crystalline form II.
# [3] = Stability test (Chinese Pharmacopoeia): affecting factors test, open container for 10 days; conditions: open container 10 days; for Water: initial 6.10%; for C1: initial 11.86%; for purity: initial purity 99.72%
# Method: (§1) The method for stability test as described in Chinese Pharmacopoeia was used in this test. • 1) Affecting factors test (in open container for 10 days): high temperature (60° C.), photostability under strong light (45001×), high humidity (92.5% RH at 25° C.) • 2) Accelerated test (in closed container for 6 months): at 40° C., humidity: 75% RH • 3) Long-term test (in closed container for 9 months): at 25° C., humidity: 60% RH
# [4] = Stability test (Chinese Pharmacopoeia): accelerated test, closed container for 6 months
# Method: as §1
# [5] = Stability test (Chinese Pharmacopoeia): long-term test, closed container for 9 months
# Method: as §1
# [6] = High humidity (92.5% RH at 25° C.)
structure (smiles),measurement,setting,value
"COc1ccc2cccc(CCNC(C)=O)c2c1 [AG · HCl · H2O, agomelatine hydrochloride hydrate]",stability with HPLC,[1]; Day 0,99.6%
same,stability with HPLC,[1]; Day 5,99.5%
same,stability with HPLC,[1]; Day 10,99.5%
same,stability with HPLC,[1]; Day 30,99.5%
same,Agomelatine content,"[2]; In 0.1 N HCl, hydrochloride hydrate",0.40 mg/mL
same,Agomelatine content,"[2]; In pH 7.0 buffer, hydrochloride hydrate",0.30 mg/mL
same,Agomelatine content,"[2]; In water, hydrochloride hydrate",0.30 mg/mL
same,solubility compared with agomelatine per se (in words),"[2]; in water, in 0.1N HCl, or in pH 7.0 buffer",better solubility
same,Water,[3]; [6],6.03%
same,C1,[3]; [6],11.63%
same,purity,[3]; [6],99.73%
same,Water,[3]; High temperature (60° C.),1.00%
same,C1,[3]; High temperature (60° C.),1.75%
same,purity,[3]; High temperature (60° C.),99.51%
same,Water,[3]; Strong light (45001×),5.95%
same,C1,[3]; Strong light (45001×),11.48%
same,purity,[3]; Strong light (45001×),99.67%
same,Water,"[4]; 40° C., 75% RH, closed container 6 months, initial 6.10%",6.02%
same,C1,"[4]; 40° C., 75% RH, closed container 6 months, initial 11.86%",11.65%
same,purity,"[4]; 40° C., 75% RH, closed container 6 months, initial purity 99.72%",99.64%
same,stability (in words),[4]; accelerated test,stable
same,Water,"[5]; 25° C., 60% RH, closed container 9 months, initial 6.10%",6.00%
same,C1,"[5]; 25° C., 60% RH, closed container 9 months, initial 11.86%",11.53%
same,purity,"[5]; 25° C., 60% RH, closed container 9 months, initial purity 99.72%",99.74%
same,stability (in words),[5]; long-term test,stable
"COc1ccc2cccc(CCNC(C)=O)c2c1 [AG crystalline form II, N-[2-(7-methoxy-1-naphthyl)pethyl]-acetamide, reference compound]",Agomelatine content,[2]; In 0.1 N HCl,0.30 mg/mL
same,Agomelatine content,[2]; In pH 7.0 buffer,0.25 mg/mL
same,Agomelatine content,[2]; In water,0.26 mg/mL
